Results from patent publication US20260286322A1, “PROTEIN TYROSINE P[…] DOMAIN PEPTIDE DIMER FOR NERVOUS SYSTEM REPAIR” (NervGen Pharma Corp., priority 2023, published 2026).

Tested on: animal model of spinal cord injury (SCI rats)
Assay: Recovery of occasional and frequent walking, inverse Kaplan-Meier on BBB thresholds
Type: in vivo, rat
Description: Adult, female Lewis rats (~160 g on arrival) from Envigo were used as the subjects receiving the treatment in the study. The rats were assigned unique identification numbers (PGI ID and tail marks) and housed in ventilated cages. All rats were examined, handled, and weighed prior to initiation of the study to assure adequate health and suitability. During the course of the study, 12/12 light/dark cycles were maintained. The room temperature was maintained between […] and 23° C. with a relative humidity maintained around 50%. Chow and water were provided adlibitum for the duration of the study. The rats were randomly assigned across treatment groups. Body weights were taken twice a week during the study.
Spinal cord injury (SCI) was introduced to the animals and post-operative care was followed after the injury according to the methods described in Example 3.
Lyophilized Compound 8 was dissolved in saline and injected s.c. at a volume of 500 μl to animal once daily from day 1-day 49 post spinal cord injury.
The target dose concentration was 0.8 mg/ml. After reconstitutions, the solution was aliquoted and kept at −20° C. until dosing.
12-13 rats were used in each of the following two groups: • 1) Control group: SCI+Saline • 2) Testing group: SCI+Compound 8 in Saline.
Inverse Kaplan-Meier graphs were generated based on the Basso, Beattie & Bresnaham (BBB) open field locomotor assessment described above in Example 3. […]
Recover occasional walking: Occasional walking is defined as less than or equal to half of the attempted steps are successful, corresponding to a BBB score of 10. The week post-SCI in which an animal achieved a 10 or above was recorded and plotted on the Kaplan Meier graph, as defined above.
Recover frequent walking: Frequent walking is defined as greater than half of the attempted steps are successful and corresponds to a BBB score of 11. The week post-SCI in which an animal achieved an 11 or above was recorded and plotted on the Kaplan Meier graph, as defined above.
Statistical methods: Kaplan Meier curves were analyzed using the log-rank test. Effects of Compound 4 and Compound 8 on the locomotor function and bladder function were assessed for statistical significance by repeated measures ANOVA (RM-ANOVA) with Geisser-Greenhouse correction for non-sphericity of data and Tukey correction for multiple comparisons or by nonparametric Friedman's test with Dunn's multiple comparison correction. The choice of RM ANOVA or Friedman's test for the analysis of each type of data (BBB scores, BBB subscores, and bladder scores) was determined by the normality of data distribution tests performed for each of the functional scores across all treatment cohorts. […]

TAT-Cys-rodent PTPRS wedge domain homodimer [Compound 8]
time at which recovery of frequent walking was first detected (post injury): after three weeks post injury | time at which recovery of occasional walking reached 50% (post-SCI): less than 6 week | recovery of frequent walking (BBB score of 11 or above), accumulated percent of group (week 12 post-SCI): ~50% | recovery of occasional walking (BBB score of 10 or above), accumulated percent of group (week 12 post-SCI, 0.8 mg/ml, 500 μl s.c. once daily day 1-49): ~80%
